Test results as given in patent US12466849B2, “Anti-viral and anti-tumoral compounds” (YEDA RESEARCH AND DEVELOPMENT CO. LTD, priority 2020, dated 2025).
Read-outs that look alike come from different tables or passages of the source. Residues, ends and D or L forms follow the SMILES beside them. *: point of attachment. Cbz = O=C(OCc1ccccc1)*; CH2F = FC*

Assays:
[1] = system: Epstein-Barr virus (EBV), Akata strain; assay: microbe, parasite or virus in culture; settings: human gammaherpesvirus 4, Akata, 72 h
[2] = system: BK virus (BKV), Gardner strain; parameters: SI50 / SI90: unit not given beside the values
JC virus (JCV) = assay: microbe, parasite or virus in culture; settings: JC polyomavirus, COS-7
[3] = system: BK virus (BKV), Gardner strain; assay: microbe, parasite or virus in culture; settings: Betapolyomavirus hominis, HFF
MOLT-3 cells = settings: human, 7 d
[4] = system: Epstein-Barr virus (EBV), Akata strain; parameters: SI50 / SI90: unit not given beside the values
in vitro [5] = settings: human
in vitro [6] = settings: African green monkey
MERS-CoV (EMC) = type: cell-based; settings: SI = CC50/EC50
[7] = system: SARS-CoV-2 (USA-WA1/2020); settings: for SI50 (SI): SARS-CoV-2, SI = CC50/EC50
[8] = system: SARS-CoV-2 (USA-WA1/2020); type: cell-based; settings: compound replenished daily, SI = CC50/EC50
[9] = system: Tacaribe virus (TCRV, TRVL-11573); parameters: SI50 (SI): unit not given beside the values
[10] = system: respiratory syncytial virus (RSV, A2)
[11] = system: Influenza B/Florida/4/2006 (Yamagata)
[12] = system: enterovirus-68 (EV-68, US/DY/14-18953)
[13] = system: dengue virus-2 (DENV-2, New Guinea C); settings: SI = CC50/EC50
[14] = system: influenza/California/07/2009 (H1N1)pdm09

`Nc1ccn(C[C@@H](CO)OCP(=O)(O)O)c(=O)n1` [CDV, Cidofovir, reference compound] showed an EC50 [1] of 9.23 µM, an EC90 [1] of 29.9 µM and an SI50 [2] of over 35. It also gave an EC50 (JC virus (JCV)) of 5.66 µM, an EC90 (JC virus (JCV)) of 107 µM and an EC50 [3] of 4.62 µM. The EC90 [3] was 106 µM, the EC50 ([3]; 168 h) was 4.3 µM and the EC90 ([3]; 168 h) was 24.1 µM. For the same compound, the CC50 (MOLT-3 cells) was 97 µM, the SI50 [4] was over 11 and the SI90 [4] was over 3. The CC50 at 7 d (in vitro [5]) was 101 µM and the CC50 (in vitro [6]) was over 150 µM.
`CC(C)CC(NC(=O)OCc1ccccc1)C(=O)NC(CCC(=O)N(C)C)C(=O)CF` (stereo not drawn) [M128533, Z-Leu-Gln(NMe2)-FMK, reference compound] (Cbz-Leu-Glu(NMe2)-CH2F; configuration not given here) gave a CC50 (SARS-CoV-2) of over 100 µg/mL, an EQ50 (SARS-CoV-2) of 0.33 µg/mL and an SI (SARS-CoV-2; SARS-CoV-2, SI = CC50/EC50) of over 300. For the same compound, the “SI50 (SI)” value (MERS-CoV (EMC)) was over 13, the CC50 [7] was over 100 µg/mL and the “SI50 (SI)” value [7] was over 1100. For the same compound, the SI (SARS-CoV; SARS-CoV, SI = CC50/EC50) was over 1300, the EQ50 (SARS-CoV; SARS-CoV, Vero 76 cells, positive control) was 0.075 µg/mL and the CC50 (SARS-CoV; Vero 76 cells without virus, positive control) was over 100 µg/mL. The SI50 [8] was over 260.
In the case of `CC(C)(C)C(=O)SCCOP(=O)(OCCSC(=O)C(C)(C)C)OCC1=CC(O)C(n2ccc(=O)[nH]c2=O)O1` (stereo not drawn) [SATE-ddhU], the CC50 [9] is reported as 170 µM, the “SI50 (SI)” value [9] is reported as 0 and the CC50 [10] is reported as 180 µM. For the same compound, the “SI50 (SI)” value ([10]; RSV, SI = CC50/EC50) was 0, the CC50 [11] was 560 µM and the “SI50 (SI)” value ([11]; Influenza B, SI = CC50/EC50) was 0. The Activity [2] was “LO (key: NA (Not Active) SI50 = 0-3.9; LO (Slightly Active) SI50 = 4-9.9; MOD (Moderately Active) SI50 = 10-19.9; HI (Highly Active) SI50 = ≥20)”, the CC50 [2] was over 150 µM and the EC50 [2] was 21.3 µM. It also gave an EC90 [2] of over 150 µM, an SI50 [2] of over 7 and an SI90 [2] of 1. The “SI50 (SI)” value (MERS-CoV (EMC)) was 0, the CC50 [12] was over 100 µM and the “SI50 (SI)” value ([12]; EV-68, SI = CC50/EC50) was 0. For the same compound, the CC50 [7] was 76 µM, the “SI50 (SI)” value [7] was 3.5 and the “SI50 (SI)” value [13] was 0. For the same compound, the Activity [4] was “NA (key: NA (Not Active) SI50 = 0-3.9; MOD (Moderately Active) SI50 = 4-9.9; HI (Highly Active) SI50 = ≥10)”, the CC50 [4] was 109 µM and the EC50 [4] was over 30 µM. The EC90 [4] was over 30 µM, the SI50 [4] was under 4 and the SI90 [4] was under 4. For the same compound, the CC50 [14] was 560 µM, the “SI50 (SI)” value ([14]; Influenza(H1N1), SI = CC50/EC50) was 0 and the SI50 [8] was over 6.7.
